Measured values from patent US20130030045A1, “METHOD OF PREVENTING AND TREATING OSTEOPOROSIS” (priority 2011, published 2013).
Where two headings read alike, the source gives them in different places.

Experiments:
[1] = system: MBMMφ cells; assay: TRAP activity assay, differentiation of MBMMφ cells induced with RANKL and M-CSF; type: cell-based, mouse; settings: for IC50: Mus musculus, 2 days with compound, then 20 ng/ml RANKL and 10 ng/ml M-CSF for 5 days, read-out: IC50, s-TRAP activity (inhibition of differentiation of MBMMφ cells)
Description: In some embodiments of the present invention, preosteoclast cells used are obtained from bone marrow in hind leg bone of C57BL/6J Narl mice, called as MBMMφ cells (mouse bone marrow macrophages), and are cultured in alpha-MEM medium (including 10% FBS and 1× antibiotic-antimycotic solution) and then added with M-CSF (macrophage colony-stimulating factor) and RANKL (receptor for activation of nuclear factor kappa B ligand) for inducing cell differentiation and maturation.
(§1) The cultured medium for cells derived from MBMMφ differentiation is removed, and cells are added with new medium. After incubation for 1 hour, and the activity of secretory type acid phosphatase in the medium is measured. First, 30 μl medium to be measured is taken out and added with […] TRAP assay reagent (0.1 M acetate buffer, 60 mM sodium tartrate and 5 mg/ml pNPP) followed by incubating for 30 minutes at 37° C., then adding 60 μl 0.5N NaOH solution to terminate the reaction and OD value at 405 nm of each specimen being measured.
In an embodiment, different concentrations of flavone (chemical structure as shown in FIG. 2(A)), 6-methoxy flavone (FIG. 2(B)), 7-methoxy flavone (FIG. 2(C)), 6-hydroxy flavone (FIG. 2(D)) and 7-hydroxy flavone (FIG. 2(E)) are respectively added into the cultured medium of MBMMφ cells, which had been cultured in 10 ng/ml M-SCF without treating with flavone components for 5 days, for 2 days. Next, after adding 20 ng/ml RANKL and 10 ng/ml M-CSF to induce cell differentiation for another 5 days, TRAP activity assay is performed.

[2] = system: MC3T3-E1 cells; assay: Alkaline phosphatase (ALP) assay, differentiation of MC3T3-E1 cells; type: cell-based; settings: 4 days
Description: In experiments, 10,000 cells/well are cultured with alpha-MEM medium (including 10% FBS and 1× antibiotic-antimycotic solution) for 4 days at 37° C. in 5% CO2 incubator. After adding different concentrations of methoxy flavones or hydroxy flavones to react for 4 days, the cultured medium is removed and 100 μl 4% formaldehyde is added to fix cells for 10 minutes. After washing cells, 30 μl p-nitrophenyl phosphate (pNPP) solution is added to react for 30 minutes at 37° C., and then 30 μl 0.5 N NaOH is added to stop the reaction. Finally, OD value is measured at […] using ELISA reader.
In an embodiment, different concentrations of 6-methoxy flavone and 7-methoxy flavone are respectively added into MC3T3-E1 cells (a kind of preosteoblast cells) in alpha-MEM medium (containing 10% FBS, 1× antibiotic-antimycotic solution, 10 mM β-glycerophsphate, 50 μg/ml VitC, 10^−7 M dexamethasone) for 4 days to induce cell osteogenic differentiation and maturation. Because differentiated MC3T3-E1 cells will express the ALP activity, ALP activity assay is used to know the extent of cell differentiation. FIGS. 5(A) and 5(B) illustrate ALP activities at four different concentrations (1.25 μM, 2.5 μM, 5 μM, 10 μM) of 6-methoxy flavone and 7-methoxy flavone, respectively, in comparison with controls (with only PBS, or without 6-methoxy flavone or 7-methoxy flavone but with equal volume of vehicle, DMSO).
In still another embodiment, different concentrations (0.4 μM, 2 μM, 10 μM, 50 μM) of flavone, 7-methoxy flavone and 6-hydroxy flavone are respectively added into MC3T3-E1 cells in alpha-MEM medium with 10% FBS, 1× antibiotic-antimycotic solution, 10 mM β-glycerophsphate, 50 μg/ml Vitamin C, and 10^−7 M dexamethasone for 4 day incubation to induce cell differentiation and maturation. FIGS. 7(A)-7(C) illustrate ALP activities of MC3T3-E1 cells after exposed to four different concentrations of flavone, 7-methoxy flavone and 6-hydroxy flavone, respectively, in comparison with control (without flavone, 7-methoxy flavone or 6-hydroxy flavone, but with vehicle DMSO).

[3] = system: MC3T3-E1 cells; assay: MTT assay, MC3T3-E1 cell growth; settings: 1 day
From the text: In an embodiment, different concentrations of flavone, 6-methoxy flavone, 7-methoxy flavone, 6-hydroxy flavone and 7-hydroxy flavone are respectively added into 3,000 MC3T3-E1 cells per well in the cultured medium for 1 day.

[4] = system: SaOS-2 cells; assay: Calcium staining for calcium deposition (CaP assay) of SaOS-2 cells; type: cell-based, human; settings: 10 μM, 7 day; data not shown
[5] = system: human mesenchymal stem cells (hMSCs); assay: Calcein fluorescent test for calcium precipitation, osteogenesis of human mesenchymal stem cells; type: cell-based; settings: FIG. 10, calcein fluorescent test
From the text: FIGS. 10(A)-10(D) respectively illustrate the effects of 6-methoxy flavone, 7-methoxyl flavone, 7-hydroxy flavone, and 6-hydroxy flavone on the osteogenesis of human mesenchymal stem cells, based on calcein fluorescent test for calcium precipitation.
Moreover, the present invention also measures the effects of methoxy flavones and hydroxyl flavones on human mesenchymal stem cells (hMSCs).

[6] = system: MBMMφ cells; assay: MTT assay, MBMMφ cell growth
Description: (§2) In an embodiment, different concentrations (0 μM, 1 μM, 5 μM, 10 μM, 15 μM, 20 μM, and 25 μM) of 7-methoxy flavone are respectively added into 3,000 MBMMφ cells/well in the cultured medium containing M-CSF for 1 day incubation. Next, MTT reagent is used to detect the OD value of cells so as to determine the growth situation of MBMMφ cells.

[7] = system: RAW 264.7 cells; assay: TRAP activity assay, differentiation of RAW 264.7 cells; type: cell-based, mouse; settings: at 8 μM, 16 μM, and 32 μM; compared to control
Description: as §1
In another embodiment, different concentrations of 7-methoxy flavone are respectively added into the cultured medium of RAW 264.7 cells (mouse leukaemic monocyte macrophages, another kind of preosteoclast cells) for 2 days. Next, after adding 20 ng/ml
RANKL and 10 ng/ml M-CSF to induce RAW 264.7 cell differentiation for 3 days, TRAP activity assay is then performed.

[8] = system: RAW 264.7 cells; assay: Toxicity to RAW 264.7 cells; type: cell-based, mouse; settings: data not shown
[9] = system: MC3T3-E1 cells; assay: Alizarin Red S stain, calcium deposition of MC3T3-E1 cells; type: cell-based; settings: at 5 μM, 10 μM, 20 μM and 40 μM; 20 days
Description: In an embodiment, different concentrations (2.5 μM, 5 μM, 10 μM, 20 μM and 40 μM) of 7-methoxy flavone are respectively added into the cultured medium of MC3T3-E1 cell incubated for 20 days, wherein the cultured medium with 7-methoxy flavone is changed every 4 days. Next, Alizarin Red S stain is used to observe the calcification situation of MC3T3-E1 cells, and OD value at 562 nm is measured for quantitative analysis.

[10] = system: MBMMφ cells
Description: as §2

[11] = at the concentration of equal to or larger than 10 μM
[12] = at the concentration of equal to or larger than 5 μM

Row | SMILES | IC50 [1] | effect on differentiation of MBMMφ cells (s-TRAP activity) [1, 11] | effect on differentiation of MC3T3-E1 cells (ALP activity) ([2]; at 4 μM and 16 μM, FIG. 6) | effect on differentiation of MC3T3-E1 cells (ALP activity) ([2]; at 10 μM and 50 μM, FIG. 7) | growth of MC3T3-E1 cells (MTT, cytotoxicity) ([3]; mouse) | calcium deposition of SaOS-2 cells [4] | calcium deposition of hMSCs [5] | growth of MBMMφ cells (MTT, cytotoxicity) ([6]; not shown) | effect on differentiation of MBMMφ cells (s-TRAP activity) [1, 12] | effect on differentiation of MC3T3-E1 cells (ALP activity) ([2]; at 5 μM and 10 μM, FIG. 5) | effect on differentiation of MC3T3-E1 cells (ALP activity) ([2]; at 16 μM, FIG. 6) | growth of MC3T3-E1 cells (MTT, cytotoxicity) ([3]; different concentrations, FIG. 8) | effect on differentiation of RAW 264.7 cells (TRAP activity) [7] | toxicity to RAW 264.7 cells [8] | calcium deposition of MC3T3-E1 cells (Alizarin Red S, OD 562 nm) [9] | growth of MBMMφ cells (MTT, cytotoxicity) ([6]; 0-25 μM, 1 day incubation, medium containing M-CSF) | effect on differentiation of MBMMφ cells (s-TRAP activity) ([1]; 1 μM, 5 μM, 10 μM, 20 μM, in comparison with control) | effect on differentiation of MC3T3-E1 cells (ALP activity) ([2]; 0.25 μM, 1 μM, 4 μM, 16 μM, FIG. 6) | effect on differentiation of MC3T3-E1 cells (ALP activity) ([2]; 0.4 μM, 2 μM, 10 μM, 50 μM, FIG. 7) | growth of MBMMφ cells (MTT, cytotoxicity) [10]
1 | O=c1cc(-c2ccccc2)oc2ccc(O)cc12 [6-hydroxy flavone] | 7.3 ± 0.2 µM | significantly inhibit the differentiation of MBMMφ cells | significantly stimulate the differentiation of MC3T3-E1 cells | obviously stimulate the differentiation of MC3T3-E1 cells | do not affect the growth of MC3T3-E1 cells | significantly enhance calcium deposition of SaOS-2 cells | does not inhibit calcium deposition even at high concentration | do not influence the growth of MBMMφ cells | – | – | – | – | – | – | – | – | – | – | – | –
2 | COc1ccc2oc(-c3ccccc3)cc(=O)c2c1 [6-methoxy flavone] | 5.4 ± 0.2 µM | – | – | – | do not affect the growth of MC3T3-E1 cells | – | greatly inhibits calcium deposition of hMSCs | do not influence the growth of MBMMφ cells | manifestly inhibit the differentiation of MBMMφ cells | efficiently enhance the differentiation of MC3T3-E1 cells | – | – | – | – | – | – | – | – | – | –
3 | O=c1cc(-c2ccccc2)oc2cc(O)ccc12 [7-hydroxy flavone] | 10.9 ± 1.3 µM | significantly inhibit the differentiation of MBMMφ cells | – | – | – | significantly enhance calcium deposition of SaOS-2 cells | inhibit calcium deposition on hMSCs only at high concentration | do not influence the growth of MBMMφ cells | – | – | enhance effectively the cell differentiation | do not affect the growth of MC3T3-E1 cells | – | – | – | – | – | – | – | –
4 | COc1ccc2c(=O)cc(-c3ccccc3)oc2c1 [7-methoxy flavone] | 7.1 ± 0.6 µM | – | significantly stimulate the differentiation of MC3T3-E1 cells | obviously stimulate the differentiation of MC3T3-E1 cells | do not affect the growth of MC3T3-E1 cells | significantly enhance calcium deposition of SaOS-2 cells | inhibit calcium deposition on hMSCs only at high concentration | – | manifestly inhibit the differentiation of MBMMφ cells | efficiently enhance the differentiation of MC3T3-E1 cells | – | – | significantly inhibit the differentiation of RAW 264.7 cells | no toxicity to RAW 264.7 cells | effectively enhance calcium deposition of MC3T3-E1 cells | does not affect the growth of MBMMφ cells | – | – | – | –
5 | O=c1cc(-c2ccccc2)oc2ccccc12 [flavone, reference compound] | > 20 µM | – | – | – | do not affect the growth of MC3T3-E1 cells | – | – | – | – | – | – | – | – | – | – | – | does not have obvious effect | does not stimulate the differentiation of MC3T3-E1 cells | does not significantly stimulate the differentiation of MC3T3-E1 cells | do not influence the growth of MBMMφ cells
